In patent US8435548B2, “Peptide derivatives and cosmetic composition comprising the same” (Bio-FD&C Co., Ltd, priority 2009, dated 2013):
Primed or numbered codes have the meaning given here. Where no end group is shown, it is not given here. Galloyl′ = not defined here

How the values were obtained:
[1] = system: mushroom tyrosinase; assay: Inhibition effect on tyrosinase activity; type: biochemical; details: test compound 100 μM; L-tyrosine substrate; pH 6.8; 37° C., 20 min; absorbance 490 nm
Method: Inhibition effects of the prepared compounds were measured by the known method (see: Pomerantz S. H., J. Biochem., 24:161-168, 1966).
The test compounds were prepared to a final concentration of 100 μM and put into a 96-well plate, and 220 μl of 100 mM sodium phosphate buffer (pH 6.8) and 40 μl of 1.5 mM L-tyrosine solution were added thereto. The resulting mixture was reacted with the addition of 20 μl of mushroom tyrosinase (1,500 units/ml, Sigma) at 37° C. for 20 min. 0.2 ml of the reacted solution was transferred to a 96-well plate, and its absorbance was measured at 490 nm with a microplate reader to obtain the inhibition effect on tyrosinase.
The tyrosinase inhibition effect was calculated according to the following formula 1 by using the absorbance of pure water as a control, and expressed as a percentage.

[2] = Free radical scavenging activity test (DPPH method, anti-oxidative activity); type: physicochemical; details: 30 min, absorbance 517 nm
Method: A representative antioxidant, vitamin C (Sigma) was used as a positive control, and the galloyl-tetrapeptide and digalloyl-tetrapeptide according to the present invention were mixed with 1,1-diphenyl-2-picrylhydrazyl (DPPH, Sigma) producing free radicals in ethanol to determine the reduced amounts of the produced free radicals. […] The resulting solution was vigorously vortexed for 10 sec, kept at a dark cold place for 30 min, and then its absorbance was measured at 517 nm by ELISA method. The anti-oxidative activity (free radical scavenging activity) was calculated according to the following formula 2 by using the absorbance of pure water as a control, and expressed as a percentage. [formula]

Molecule: Galloyl-Tripeptide(Glutamyl-Cysteinyl-Glycine) [Example 3]
- Inhibition (%) [1]: 34%

Molecule: O=C(O)c1cc(O)c(O)c(O)c1 [Gallic acid]
- Inhibition (%) [1]: 10%
- Free radical scavenging activity (%) ([2]; 10 uM): 63.1%
- Free radical scavenging activity (%) ([2]; 50 uM): 70.4%
- Free radical scavenging activity (%) ([2]; 100 uM): 75.1%

Molecule: O=C1O[C@H]([C@@H](O)CO)C(O)=C1O [Vitamin C]
- Free radical scavenging activity (%) ([2]; 10 uM): 55.2%
- Free radical scavenging activity (%) ([2]; 50 uM): 68.3%
- Free radical scavenging activity (%) ([2]; 100 uM): 72.5%

Molecule: Digalloyl-Tetrapeptide(Lysyl-Tyrosyl-Histidyl-Tyrosine) (KYHY; also: digalloyl: two galloyl groups, sites not given here) [Comparative Example 2, soy bean-derived peptide connected to gallic acid]
- Inhibition (%) [1]: 21%

Molecule: Galloyl-Tetrapeptide(Lysyl-Glutamyl-Cysteinyl-Glycine) [Example 1]
- Inhibition (%) [1]: 40%
- Free radical scavenging activity (%) ([2]; 10 uM): 65.8%
- Free radical scavenging activity (%) ([2]; 50 uM): 78.2%
- Free radical scavenging activity (%) ([2]; 100 uM): 78.1%

Molecule: Galloyl-Tripeptide(Tyrosyl-Histidyl-Tyrosine) ({Galloyl′}-Tyr-His-Tyr) [Comparative Example 1, soy bean-derived peptide connected to gallic acid]
- Inhibition (%) [1]: 15%

Molecule: Digalloyl-Tetrapeptide(Lysyl-Glutamyl-Cysteinyl-Glycine) [Example 2]
- Inhibition (%) [1]: 52%
- Free radical scavenging activity (%) ([2]; 10 uM): 82.1%
- Free radical scavenging activity (%) ([2]; 50 uM): 82.0%
- Free radical scavenging activity (%) ([2]; 100 uM): 83.5%
